Assay: Cytotoxicity against WHCO1 cells after 48 hrs by MTT assay
Format: cell-based
Conditions: Homo sapiens, WHCO1, 48 h

Row | SMILES | IC50 [µM]
1 | C=C(C)C(Br)CC(Br)/C(C)=C/C=O (configuration not stated) | 7.5
2 | CC(/C=C/C(Cl)C(C)(Cl)CBr)=C\C=O (configuration not stated) | 64.8
